Test results from ChEMBL document CHEMBL4706603, “Discovery of VEGFR-2 inhibitors exerting significant anticancer activity against CD44+ and CD133+ cancer stem cells (CSCs): Reversal of TGF-β induced epithelial-mesenchymal transition (EMT) in hepatocellular carcinoma” (Eur J Med Chem, 2020).
The source made the active and inactive calls. The rule behind the calls is not given here.

Legend:
[1] = Toxicity in Wistar rat assessed as effect on water consumption at 5 to 2000 mg/kg, po and observed for 14 days; format: organism-based; details: in vivo, 336 h, dose 5-2000 mg/kg, time 14 day
[2] = Toxicity in Wistar rat assessed as effect on body weight at 5 to 300 mg/kg, po and observed for 14 days; format: organism-based; details: in vivo, 336 h, dose 5-300 mg/kg, time 14 day
HepG2 [3] = assay: Induction of mitochondrial membrane potential disruption in human HepG2 cells assessed as green fluorescence at IC50 incubated for 24 hrs by JC-10 staining based fluorescence assay; format: functional, cell-based
[4] = Toxicity in Wistar rat assessed as normal histoarchitecture of alveoli and bronchi in lungs without inflammatory or pathological changes at 2000 mg/kg, po and measured on day 15 by microscopic analysis; format: organism-based; details: in vivo, 360 h, time 15 day
HepG2 [5] = assay: Antimigratory activity against human HepG2 cells assessed as reduction in cell migration at IC50 incubated for 24 hrs by transwell migration assay; format: functional, cell-based
[6] = Toxicity in Wistar rat assessed as effect on ALP level in serum at 5 to 2000 mg/kg, po and measured on day 15; format: organism-based; details: in vivo, 360 h, dose 5-2000 mg/kg, time 15 day
HepG2 [7] = assay: Induction of apoptosis in human HepG2 cells assessed as late apoptotic cells by measuring green fluorescence membrane with fragmented red nucleus at IC50 incubated for 24 hrs by Alexa Fluor488-annexin V/PI staining based fluorescence analysis; format: functional, cell-based
[8] = Toxicity in Wistar rat assessed as effect on food consumption at 5 to 2000 mg/kg, po and observed for 14 days; format: organism-based; details: in vivo, 336 h, dose 5-2000 mg/kg, time 14 day
[9] = Inhibition of VEGFR2 expression in human HUVEC assessed as mean fluorescence intensity at IC50 incubated for 48 hrs by fluorescence microscopic analysis (reference value: 1.448 +/- 0.01); format: functional
[10] = Inhibition of VEGFR2 expression in human HUVEC at IC50 incubated for 48 hrs by fluorescence microscopic analysis relative to control; format: functional
MDA-MB-231 [11] = assay: Cytotoxicity against human MDA-MB-231 cells assessed as reduction in cell viability by trypan blue assay; format: functional, cell-based
HepG2 [12] = assay: Induction of apoptosis in human HepG2 cells assessed as necrotic cells by measuring intense red fluorescence at IC50 incubated for 24 hrs by Alexa Fluor488-annexin V/PI staining based fluorescence analysis; format: functional, cell-based
HepG2 [13] = assay: Inhibition of epithelial-mesenchymal transition in TGF-beta-induced human HepG2 cells assessed as vimentin expression at IC50 incubated for 48 hrs by flow cytometry analysis (reference value: 98.19 %); format: functional; parameters: scale not given: the % may be the effect or the level left
HepG2 [14] = assay: Inhibition of epithelial-mesenchymal transition in TGF-beta-induced human HepG2 cells assessed as SNAIL expression at IC50 incubated for 48 hrs by flow cytometry analysis (reference value: 97.78 %); format: functional; parameters: scale not given: the % may be the effect or the level left
[15] = Toxicity in Wistar rat assessed as effect on uric acid level in serum at 5 to 2000 mg/kg, po and measured on day 15; format: organism-based; details: in vivo, 360 h, dose 5-2000 mg/kg, time 15 day
MDA-MB-231 [16] = assay: Induction of apoptosis in human MDA-MB-231 cells assessed as late apoptotic cells at IC50 incubated for 72 hrs by Alexa Fluor488-annexin V/PI staining based flow cytometric analysis (Rvb= 0.0 %); format: functional
HepG2 [17] = assay: Induction of apoptosis in human HepG2 cells assessed as early apoptotic cells by measuring yellowish green coloured nucleus at IC50 incubated for 24 hrs by EtBr/AO staining based fluorescence microscopic analysis; format: functional, cell-based
HUVEC [18] = assay: Induction of apoptosis in human HUVEC assessed as late apoptotic cells at IC50 incubated for 48 hrs by annexin V-FITC and PI staining based flow cytometry; format: functional
HepG2 [19] = assay: Cytotoxicity against human HepG2 cells assessed as reduction in cell viability incubated for 24 hrs by MTT assay; format: functional, cell-based
[20] = Toxicity in female Wistar rat assessed as apathy occurence at 2000 mg/kg, po observed for 48 hrs; format: organism-based; details: in vivo
HepG2 [21] = assay: Inhibition of epithelial-mesenchymal transition in TGF-beta-induced human HepG2 cells assessed as E-cadherin expression at IC50 incubated for 48 hrs by flow cytometry analysis (reference value: 2.92 %); format: functional; parameters: scale not given: the % may be the effect or the level left
[22] = Retention time in Wistar rat plasma by HPLC-MS analysis; format: ADME, cell-free
[23] = Toxicity in Wistar rat assessed as normal splenic tissue with normal red and white pulp with lymphoid cellular population at 2000 mg/kg, po and measured on day 15 by microscopic analysis; format: organism-based; details: in vivo, 360 h, time 15 day
HUVEC [24] = assay: Induction of apoptosis in human HUVEC assessed as early apoptotic cells at IC50 incubated for 48 hrs by annexin V-FITC and PI staining based flow cytometry (reference value: <1%); format: functional
[25] = Toxicity in Wistar rat assessed as effect on creatinine level in serum at 5 to 2000 mg/kg, po and measured on day 15; format: organism-based; details: in vivo, 360 h, dose 5-2000 mg/kg, time 15 day
HepG2 [26] = assay: Induction of apoptosis in human HepG2 cells assessed as early apoptotic cells by measuring green fluorescence at IC50 incubated for 24 hrs by Alexa Fluor488-annexin V/PI staining based fluorescence analysis; format: functional, cell-based
HepG2 [27] = assay: Antiproliferative activity against human HepG2 cells harboring CD44+ assessed as reduction in cell viability incubated for 24 hrs by MTT assay; format: functional, cell-based
[28] = Toxicity in Wistar rat assessed as effect on SGPT level at 5 to 2000 mg/kg, po and measured on day 15; format: organism-based; details: in vivo, 360 h, dose 5-2000 mg/kg, time 15 day
HepG2 [29] = assay: Induction of cell cycle arrest in human HepG2 cells harboring CD44+ assessed as increase in G0/G1 phase arrest at IC50 concentration incubated for 48 hrs by PI staining based flow cytometry analysis; format: functional
[30] = Cmax in Wistar rat at 5 mg/kg, po measured upto 72 hrs by HPLC-MS analysis; format: ADME, organism-based; parameters: route oral, dose 5 mg/kg, time <=72; details: in vivo
[31] = Toxicity in Wistar rat assessed as toxic signs at 5 to 300 mg/kg, po and observed for 14 days; format: organism-based; details: in vivo, 336 h, dose 5-300 mg/kg, time 14 day
[32] = Toxicity in Wistar rat assessed as mortality of organism at 5 to 2000 mg/kg, po and observed for 14 days; format: organism-based; details: in vivo, 336 h, dose 5-2000 mg/kg, time 14 day
[33] = Half life in Wistar rat at 5 mg/kg, po measured upto 72 hrs by HPLC-MS analysis; format: ADME, organism-based; details: in vivo
MDA-MB-231 [34] = assay: Induction of apoptosis in human MDA-MB-231 cells assessed as early apoptotic cells at IC50 incubated for 72 hrs by Alexa Fluor488-annexin V/PI staining based flow cytometric analysis (Rvb= 0.6 %); format: functional
[35] = Toxicity in female Wistar rat assessed as periodic body stretching at 2000 mg/kg, po observed for 48 hrs; format: organism-based; details: in vivo
[36] = Toxicity in Wistar rat assessed as effect on total bilirubin level in serum at 5 to 2000 mg/kg, po and measured on day 15; format: organism-based; details: in vivo, 360 h, dose 5-2000 mg/kg, time 15 day
HepG2 [37] = assay: Induction of apoptosis in human HepG2 cells assessed as shrinkage of nucleus by measuring orange coloured fluorescence at IC50 incubated for 24 hrs by EtBr/AO staining based fluorescence microscopic analysis; format: functional, cell-based
HepG2 [38] = assay: Antimigratory activity against human HepG2 cells assessed as reduction in cell migration at IC50 by transwell migration assay; format: functional, cell-based; details: TDE = time-dependent effect

Question: For CC(=O)Nc1ccc(Oc2cccc3c(NC(=O)Nc4cccc(C(F)(F)F)c4)cccc23)cc1, which Activity [1] is on record?
Answer: Non-Toxic

Question: And the Activity [2]?
Answer: Non-Toxic

Question: What about the Activity (HepG2 [3]) of the same compound?
Answer: Active

Question: And the Activity [4]?
Answer: Non-Toxic

Question: And the Activity (HepG2 [5])?
Answer: Active

Question: What about the Activity [6] of the same compound?
Answer: Non-Toxic

Question: What about the Activity (HepG2 [7]) of the same compound?
Answer: Active

Question: What about the Activity [8] of the same compound?
Answer: Non-Toxic

Question: And the Flu intensity [9]?
Answer: 1

Question: What about the “fold change (FC)” value [10] of the same compound?
Answer: 0.37

Question: And the IC50 (MDA-MB-231 [11])?
Answer: 3.58 µM

Question: What about the inhibition (MDA-MB-231 [11]) of the same compound?
Answer: Dose-dependent effect

Question: What about the Activity (HepG2 [12]) of the same compound?
Answer: Active

Question: And the Activity (HepG2 [13])?
Answer: 20.44%

Question: What about the Activity (HepG2 [14]) of the same compound?
Answer: 10.26%

Question: What about the Activity [15] of the same compound?
Answer: Non-Toxic

Question: And the Activity (MDA-MB-231 [16])?
Answer: 4.3%

Question: What about the Activity (HepG2 [17]) of the same compound?
Answer: Active

Question: What about the Activity (HUVEC [18]) of the same compound?
Answer: 6.09%

Question: And the inhibition (HepG2 [19])?
Answer: Dose-dependent effect

Question: What about the IC50 (HepG2 [19]; HepG2, 24 h) of the same compound?
Answer: 0.258 µM

Question: What about the Activity [20] of the same compound?
Answer: Toxic

Question: What about the Activity (HepG2 [21]) of the same compound?
Answer: 46.7%

Question: What about the Retention_time [22] of the same compound?
Answer: 10.17 min

Question: And the Activity [23]?
Answer: Non-Toxic

Question: And the Activity (HUVEC [24])?
Answer: 37.53%

Question: And the Activity [25]?
Answer: Non-Toxic

Question: And the Activity (HepG2 [26])?
Answer: Active

Question: What about the inhibition (HepG2 [27]) of the same compound?
Answer: Dose-dependent effect

Question: What about the IC50 (HepG2 [27]; HepG2, 24 h) of the same compound?
Answer: 3.29 µM

Question: And the Activity [28]?
Answer: Non-Toxic

Question: What about the Activity (HepG2 [29]) of the same compound?
Answer: Active

Question: And the Cmax [30]?
Answer: 39700 ng/mL

Question: What about the Activity [31] of the same compound?
Answer: Non-Toxic

Question: What about the Activity [32] of the same compound?
Answer: Non-Toxic

Question: What about the half-life [33] of the same compound?
Answer: 11.9 h

Question: What about the Activity (MDA-MB-231 [34]) of the same compound?
Answer: 68.2%

Question: And the Activity [35]?
Answer: Toxic

Question: And the Activity [36]?
Answer: Non-Toxic

Question: What about the Activity (HepG2 [37]) of the same compound?
Answer: Active

Question: What about the Activity (HepG2 [38]) of the same compound?
Answer: Tde
